From patent US20100286028A1, “USE OF A PEPTIDE AS A THERAPEUTIC AGENT” (priority 2007, published 2010)
No end group written: not given here.

Key:
[1] = test system: Primary Human endothelial cells (HUVEC); assay: Endothelial cell migration assay; format: cell-based; details: 10 micrograms per ml, 22 hours, combination peptide 1:peptide 2 1.10 mole:0.90 mole
murine spleen cells = assay: Th1/Th2 cytokine profiling assay; format: cell-based, Balb/c mice; details: 10 micrograms per ml, Ovalbumin-restimulated spleen cells, 72 hours
Text: The Balb/c mice (originated in 1923, it is a popular strain and is used in many different research disciplines. Also classified as an inbred from the production of 20 or more successive brother-sister matings, the Balb/c mouse is albino and small in size) were immunized on Days 1, 15, and 29 with Ovalbumin (Ovalbumin is the main protein found in egg white, commonly used to stimulate an immunological reaction in test animals) in PBS (5 micrograms/injection). On day 50, spleens of the mice were harvested (3 weeks after last boost with Ovalbumin). […] Thereafter, additional Ovalbumin was added to the cells at 10 micrograms/ml for in vitro restimulation of the cells. 72 hours later, cell supernatants were harvested and assayed using the Becton Dickinson Mouse Th1/Th2 Cytokine CBA Kit. This kit can be used to measure Interleukin-2 (IL-2), Interleukin-4 (IL-4), Interleukin-5 (IL-5), Interferon-γ (IFN-γ), and Tumor Necrosis Factor-a (TNF-a) protein levels in a single sample.

[2] = test system: hepatitis B virus (HBV) ayw strain; assay: HBV experimental assay system (HepG2-2.2.15, TaqMan PCR of secreted HBV DNA); format: cell-based; details: 10 micrograms per ml, six days, HBV DNA by TaqMan PCR, combination 0.95 mole peptide 1 and 1.05 mole peptide 2
HCMV strain AD169 = assay: HCMV plaque formation assay in MRC-5 cells; details: peptides 10 micrograms per ml, 7-10 days
HUVEC = assay: Endothelial tube formation assay; format: cell-based, human; details: 10 micrograms per ml, 20 hours, average tubule length, combination peptide 1:peptide 2 1.10 mole:0.90 mole
Text: Positive control was vehicle only.

Streptococcus pneumoniae = Streptococcus pneumoniae assay; format: cell-based; details: 10 micrograms per ml; 5x10^5 CFU/mL; read visually; combination 0.95 mole peptide 1 and 1.05 mole peptide 2 and all other molar ratios from 1:100 to 100:1
HIV-1IIIB = assay: HIV-1 antiviral assay in CEM-SS cells; details: peptides 10 micrograms per ml; CEM-SS cells plus HIV-1IIIB; MTS readout 6 days post-infection
[3] = combination 0.95 mole peptide 1 and 1.05 mole peptide 2

Row | Compound | inhibition of the migration of human endothelial cells [1] [%] | change of the production of IL-5 in murine spleen cells (murine spleen cells; [3]) | production of IFN-γ in murine spleen cells, induced by (murine spleen cells; [3]) | production of IL-2 in murine spleen cells, induced by (murine spleen cells; [3]) | production of IL-4 in murine spleen cells, induced by (murine spleen cells; [3]) [%] | production of TNF-alpha in murine spleen cells, induced by (murine spleen cells; [3]) [%] | inhibition of HBV replication as compared to the virus control infection [2] [%] | inhibition of HCMV plaque formation as compared to the virus control experiment (HCMV strain AD169) | increase of the tube formation of human endothelial cells (HUVEC) [%] | inhibition of the growth of Streptococcus pneumoniae (Streptococcus pneumoniae) [%] | inhibition of HIV-1 activity on tested T-cells (HIV-1IIIB) | production of IL-4 in murine spleen cells, suppressed by (murine spleen cells) [%]
1 | PALPEDGGSGAFPPGHFKDPKRLY [Peptide 1] | 17 | did not significantly change | 30.3% | 77.4% | 123.9 | 30.0 | 24.3 | did not inhibit | 2 | 100 |  | 
2 | CC(C)(C)NC(=O)[C@@H]1CN(Cc2cccnc2)CCN1C[C@@H](O)C[C@@H](Cc1ccccc1)C(=O)N[C@H]1c2ccccc2C[C@H]1O [indinavir] |  |  |  |  |  |  |  |  |  |  | expected levels of antiviral activity | 
3 | Nc1nc(O)c2ncn(COC(CO)CO)c2n1 [Ganciclovir, reference compound] |  |  |  |  |  |  |  | expected levels of antiviral activity |  |  |  | 
4 | Cys-Tyr-Phe-Gln-Asn-Cys-Pro-Arg-Gly-NH2 (CYFQNCPRG-NH2; ends and bridges not checked) [Peptide 2] | 5 | did not significantly change | did not significantly change | did not significantly change |  | 24.9 | 26.3 | did not inhibit | 4 | 100 |  | 59.6
5 | Cc1cn([C@H]2C[C@H](N=[N+]=[N-])[C@@H](CO)O2)c(=O)[nH]c1=O [AZT] |  |  |  |  |  |  |  |  |  |  | expected levels of antiviral activity | 
